Converted amounts (≈) assume the structure as drawn. One block for each compound: values may come before it. The source made the active and inactive calls. The calls are words filed in the database; no cut-off is given here.
Tests used:
Staphylococcus aureus [1] = assay: Antibacterial activity against Staphylococcus aureus MTCC 96 incubated for 24 hrs at 37 degC by well diffusion method; format: functional; conditions: MTCC 96, 24 h
Bacillus subtilis [2] = assay: Antibacterial activity against Bacillus subtilis MTCC 121 incubated for 24 hrs at 37 degC by well diffusion method; format: functional; conditions: MTCC 121, 24 h
Staphylococcus aureus [3] = assay: Antibacterial activity against Staphylococcus aureus MLS16 MTCC 2940 incubated for 24 hrs at 37 degC by well diffusion method; format: functional; conditions: MLS16 MTCC 2940, 24 h
Micrococcus luteus [4] = assay: Antibacterial activity against Micrococcus luteus MTCC 2470 incubated for 24 hrs at 37 degC by well diffusion method; format: functional; conditions: MTCC 2470, 24 h
Raoultella planticola [5] = assay: Antibacterial activity against Klebsiella planticola MTCC 530 incubated for 24 hrs at 37 degC by well diffusion method; format: functional; conditions: MTCC 530, 24 h
Escherichia coli [6] = assay: Antibacterial activity against Escherichia coli MTCC 739 incubated for 24 hrs at 37 degC by well diffusion method; format: functional; conditions: MTCC 739, 24 h
Pseudomonas aeruginosa = assay: Antibacterial activity against Pseudomonas aeruginosa MTCC 2453 incubated for 24 hrs at 37 degC by well diffusion method; format: functional; conditions: MTCC 2453, 24 h
Staphylococcus aureus [7] = assay: Bactericidal activity against Staphylococcus aureus MTCC 96 incubated for 24 hrs; format: functional; conditions: MTCC 96, 24 h
Bacillus subtilis [8] = assay: Bactericidal activity against Bacillus subtilis MTCC 121 incubated for 24 hrs; format: functional; conditions: MTCC 121, 24 h
Staphylococcus aureus [9] = assay: Bactericidal activity against Staphylococcus aureus MLS16 MTCC 2940 incubated for 24 hrs; format: functional; conditions: MLS16 MTCC 2940, 24 h
Micrococcus luteus [10] = assay: Bactericidal activity against Micrococcus luteus MTCC 2470 incubated for 24 hrs; format: functional; conditions: MTCC 2470, 24 h
Raoultella planticola [11] = assay: Bactericidal activity against Klebsiella planticola MTCC 530 incubated for 24 hrs; format: functional; conditions: MTCC 530, 24 h
Escherichia coli [12] = assay: Bactericidal activity against Escherichia coli MTCC 739 incubated for 24 hrs; format: functional; conditions: MTCC 739, 24 h
Candida albicans [13] = assay: Antifungal activity against Candida albicans MTCC 183 incubated for 24 hrs at 30 degC by well diffusion method; format: functional; conditions: MTCC 183, 24 h
Candida albicans [14] = assay: Antifungal activity against Candida albicans MTCC 227 incubated for 24 hrs at 30 degC by well diffusion method; format: functional; conditions: MTCC 227, 24 h
Candida albicans [15] = assay: Antifungal activity against Candida albicans MTCC 854 incubated for 24 hrs at 30 degC by well diffusion method; format: functional; conditions: MTCC 854, 24 h
Candida albicans [16] = assay: Antifungal activity against Candida albicans MTCC 1637 incubated for 24 hrs at 30 degC by well diffusion method; format: functional; conditions: MTCC 1637, 24 h
Candida albicans [17] = assay: Antifungal activity against Candida albicans MTCC 3017 incubated for 24 hrs at 30 degC by well diffusion method; format: functional; conditions: MTCC 3017, 24 h
Candida albicans [18] = assay: Antifungal activity against Candida albicans MTCC 3018 incubated for 24 hrs at 30 degC by well diffusion method; format: functional; conditions: MTCC 3018, 24 h
Candida albicans [19] = assay: Antifungal activity against Candida albicans MTCC 3958 incubated for 24 hrs at 30 degC by well diffusion method; format: functional; conditions: MTCC 3958, 24 h
Candida albicans [20] = assay: Antifungal activity against Candida albicans MTCC 4748 incubated for 24 hrs at 30 degC by well diffusion method; format: functional; conditions: MTCC 4748, 24 h
Candida albicans [21] = assay: Antifungal activity against Candida albicans MTCC 7315 incubated for 24 hrs at 30 degC by well diffusion method; format: functional; conditions: MTCC 7315, 24 h
Candida parapsilosis [22] = assay: Antifungal activity against Candida parapsilosis MTCC 1744 incubated for 24 hrs at 30 degC by well diffusion method; format: functional; conditions: Lodderomyces parapsilosis, MTCC 1744, 24 h
[Candida] aaseri [23] = Antifungal activity against Candida aaseri MTCC 1962 incubated for 24 hrs at 30 degC by well diffusion method; format: functional; conditions: Yamadazyma aaseri, MTCC 1962, 24 h
Nakaseomyces glabratus [24] = assay: Antifungal activity against Candida glabrata MTCC 3019 incubated for 24 hrs at 30 degC by well diffusion method; format: functional; conditions: MTCC 3019, 24 h
Pichia kudriavzevii [25] = assay: Antifungal activity against Candida krusei MTCC 3020 incubated for 24 hrs at 30 degC by well diffusion method; format: functional; conditions: MTCC 3020, 24 h
Pichia sporocuriosa [26] = assay: Antifungal activity against Issatchenkia hanoiensis MTCC 4755 incubated for 24 hrs at 30 degC by well diffusion method; format: functional; conditions: MTCC 4755, 24 h
Candida albicans [27] = assay: Fungicidal activity against Candida albicans MTCC 183 incubated for 24 hrs; format: functional; conditions: MTCC 183, 24 h
Candida albicans [28] = assay: Fungicidal activity against Candida albicans MTCC 227 incubated for 24 hrs; format: functional; conditions: MTCC 227, 24 h
Candida albicans [29] = assay: Fungicidal activity against Candida albicans MTCC 854 incubated for 24 hrs; format: functional; conditions: MTCC 854, 24 h
Candida albicans [30] = assay: Fungicidal activity against Candida albicans MTCC 1637 incubated for 24 hrs; format: functional; conditions: MTCC 1637, 24 h
Candida albicans [31] = assay: Fungicidal activity against Candida albicans MTCC 3017 incubated for 24 hrs; format: functional; conditions: MTCC 3017, 24 h
Candida albicans [32] = assay: Fungicidal activity against Candida albicans MTCC 3018 incubated for 24 hrs; format: functional; conditions: MTCC 3018, 24 h
Candida albicans [33] = assay: Fungicidal activity against Candida albicans MTCC 3958 incubated for 24 hrs; format: functional; conditions: MTCC 3958, 24 h
Candida albicans [34] = assay: Fungicidal activity against Candida albicans MTCC 4748 incubated for 24 hrs; format: functional; conditions: MTCC 4748, 24 h
Candida albicans [35] = assay: Fungicidal activity against Candida albicans MTCC 7315 incubated for 24 hrs; format: functional; conditions: MTCC 7315, 24 h
Candida parapsilosis [36] = assay: Fungicidal activity against Candida parapsilosis MTCC 1744 incubated for 24 hrs; format: functional; conditions: Lodderomyces parapsilosis, MTCC 1744, 24 h
[Candida] aaseri [37] = Fungicidal activity against Candida aaseri MTCC 1962 incubated for 24 hrs; format: functional; conditions: Yamadazyma aaseri, MTCC 1962, 24 h
Nakaseomyces glabratus [38] = assay: Fungicidal activity against Candida glabrata MTCC 3019 incubated for 24 hrs; format: functional; conditions: MTCC 3019, 24 h
Pichia kudriavzevii [39] = assay: Fungicidal activity against Candida krusei MTCC 3020 incubated for 24 hrs; format: functional; conditions: MTCC 3020, 24 h
Pichia sporocuriosa [40] = assay: Fungicidal activity against Issatchenkia hanoiensis MTCC 4755 incubated for 24 hrs; format: functional; conditions: MTCC 4755, 24 h
Candida albicans [41] = assay: Antibiofilm activity against Candida albicans MTCC 227 after 24 hrs by crystal violet staining based assay; format: functional, organism-based; conditions: MTCC 227, 24 h
Micrococcus luteus [42] = assay: Antibiofilm activity against Micrococcus luteus MTCC 2470 after 24 hrs by crystal violet staining based assay; format: functional, organism-based; conditions: MTCC 2470, 24 h
Staphylococcus aureus [43] = assay: Antibiofilm activity against Staphylococcus aureus MTCC 96 after 24 hrs by crystal violet staining based assay; format: functional, organism-based; conditions: MTCC 96, 24 h
Candida albicans [44] = assay: Induction of ROS accumulation in Candida albicans MTCC 227 sessile cells at 2 to 8 ug/ml incubated for 24 hrs by DCFH-DA dye based microplate reader analysis; format: functional, organism-based

- MIC (Staphylococcus aureus [1]): > 250 µg/mL
- MIC (Bacillus subtilis [2]): 31.2 µg/mL (≈ 104 µM)
- MIC (Staphylococcus aureus [3]): > 250 µg/mL
- MIC (Micrococcus luteus [4]): 7.8 µg/mL (≈ 26.1 µM)
- MIC (Escherichia coli [6]): > 250 µg/mL
- MIC (Pseudomonas aeruginosa): > 250 µg/mL
SMILES: CCCCCCCCC[C@@H](O)[C@H](CO)n1cc(CO)nn1
- MIC (Raoultella planticola [5]): > 250 µg/mL
- MBC (Staphylococcus aureus [7]): > 250 µg/mL
- MBC (Bacillus subtilis [8]): 31.2 µg/mL (≈ 104 µM)
- MBC (Staphylococcus aureus [9]): > 250 µg/mL
- MBC (Micrococcus luteus [10]): 15.6 µg/mL (≈ 52.1 µM)
- MBC (Raoultella planticola [11]): > 250 µg/mL
- MBC (Escherichia coli [12]): > 250 µg/mL

- MIC (Staphylococcus aureus [1]): 7.8 µg/mL (≈ 21.6 µM)
- MIC (Bacillus subtilis [2]): 7.8 µg/mL (≈ 21.6 µM)
- MIC (Staphylococcus aureus [3]): 7.8 µg/mL (≈ 21.6 µM)
- MIC (Micrococcus luteus [4]): 3.9 µg/mL (≈ 10.8 µM)
- MIC (Escherichia coli [6]): > 250 µg/mL
- MIC (Pseudomonas aeruginosa): > 250 µg/mL
- MIC (Candida albicans [13]): 7.8 µg/mL (≈ 21.6 µM)
- MIC (Candida albicans [14]): 3.9 µg/mL (≈ 10.8 µM)
- MIC (Candida albicans [15]): 3.9 µg/mL (≈ 10.8 µM)
- MIC (Candida albicans [16]): 15.6 µg/mL (≈ 43.2 µM)
- MIC (Candida albicans [17]): 7.8 µg/mL (≈ 21.6 µM)
- MIC (Candida albicans [18]): 7.8 µg/mL (≈ 21.6 µM)
- MIC (Candida albicans [19]): 15.6 µg/mL (≈ 43.2 µM)
- MIC (Candida albicans [20]): 7.8 µg/mL (≈ 21.6 µM)
- MIC (Candida albicans [21]): 31.2 µg/mL (≈ 86.3 µM)
- MIC (Candida parapsilosis [22]): 15.6 µg/mL (≈ 43.2 µM)
- MIC ([Candida] aaseri [23]): 7.8 µg/mL (≈ 21.6 µM)
- MIC (Nakaseomyces glabratus [24]): 7.8 µg/mL (≈ 21.6 µM)
- MIC (Pichia kudriavzevii [25]): 15.6 µg/mL (≈ 43.2 µM)
- MIC (Pichia sporocuriosa [26]): 7.8 µg/mL (≈ 21.6 µM)
- IC50 (Candida albicans [41]): 1.9 µg/mL (≈ 5.26 µM)
- IC50 (Micrococcus luteus [42]): 2.1 µg/mL (≈ 5.81 µM)
- IC50 (Staphylococcus aureus [43]): 2.9 µg/mL (≈ 8.02 µM)
SMILES: CCCCCCCCC[C@@H](O)[C@H](CO)n1cc(-c2cccc(O)c2)nn1
- MIC (Raoultella planticola [5]): 15.6 µg/mL (≈ 43.2 µM)
- MBC (Staphylococcus aureus [7]): 7.8 µg/mL (≈ 21.6 µM)
- MBC (Bacillus subtilis [8]): 15.6 µg/mL (≈ 43.2 µM)
- MBC (Staphylococcus aureus [9]): 15.6 µg/mL (≈ 43.2 µM)
- MBC (Micrococcus luteus [10]): 3.9 µg/mL (≈ 10.8 µM)
- MBC (Raoultella planticola [11]): 15.6 µg/mL (≈ 43.2 µM)
- MBC (Escherichia coli [12]): > 250 µg/mL
- MFC (Candida albicans [27]): 15.6 µg/mL (≈ 43.2 µM)
- MFC (Candida albicans [28]): 3.9 µg/mL (≈ 10.8 µM)
- MFC (Candida albicans [29]): 7.8 µg/mL (≈ 21.6 µM)
- MFC (Candida albicans [30]): 15.6 µg/mL (≈ 43.2 µM)
- MFC (Candida albicans [31]): 7.8 µg/mL (≈ 21.6 µM)
- MFC (Candida albicans [32]): 15.6 µg/mL (≈ 43.2 µM)
- MFC (Candida albicans [33]): 31.2 µg/mL (≈ 86.3 µM)
- MFC (Candida albicans [34]): 15.6 µg/mL (≈ 43.2 µM)
- MFC (Candida albicans [35]): 31.2 µg/mL (≈ 86.3 µM)
- MFC (Candida parapsilosis [36]): 15.6 µg/mL (≈ 43.2 µM)
- MFC ([Candida] aaseri [37]): 15.6 µg/mL (≈ 43.2 µM)
- MFC (Nakaseomyces glabratus [38]): 7.8 µg/mL (≈ 21.6 µM)
- MFC (Pichia kudriavzevii [39]): 31.2 µg/mL (≈ 86.3 µM)
- MFC (Pichia sporocuriosa [40]): 7.8 µg/mL (≈ 21.6 µM)
- Activity (Candida albicans [44]): Active

Reference: ChEMBL document CHEMBL3822398, “Design, synthesis and in vitro biological evaluation of short-chain C12-sphinganine and its 1,2,3-triazole analogs as potential antimicrobial and anti-biofilm agents” (Eur J Med Chem, 2016)
